Reference: patent US9334530B2, “Methods for making and imaging arrays that comprise a plurality of different biomolecules” (AmberGen, Inc., priority 2007, dated 2016)

Biological target: T1, PKCα (Homo sapiens, UniProt P17252)
T1 construct: isolate and photo-release endogenous PKCa from the undiluted detergent fractionated HeLa cell extracts; endogenous in cells; host or cells: HeLa cells (ATCC)
Test: PMA mediated PKCα sub-cellular translocation, measured by kinase activity after photocleavable antibody isolation
Assay type: cell-based
Conditions: cultured HeLa cells stimulated with 200 nM PMA for 5 min, detergent fractionated; based on kinase activity of isolated PKCα; n=4
Procedure: FIG. 20. Phorbol ester (PMA) mediated protein kinase Cα (PKCα) sub-cellular translocation as measured by functional activity following isolation with photocleavable antibodies. Cultured HeLa cells were stimulated with 200 nM PMA for 5 min and detergent fractionated into the cytosol and membrane compartments prior to isolation and purification with the photocleavable antibodies.
Cultured HeLa cells (ATCC; Manassas, Va.) were stimulated for 5 min with 200 nM Phorbol-12-Myristate-13-Acetate (PMA; EMD Biosciences, Inc., San Diego, Calif.) and subsequently detergent fractionated into sub-cellular compartments according to reported procedures [Ramsby et al. (1994) Electrophoresis 15, 265-277; Ramsby & Makowski. (1999) Methods Mol Biol 112, 53-66; Chiang et al. (2000) J Biochem Biophys Methods 46, 53-68]. PMA is a potent activator of PKCα and is well known to cause translocation of the kinase from the cytosolic to the membrane sub-cellular compartments [Ross & Joyner. (1997) Endothelium 5, 321-332; Bazan & Rapoport. (1996) JPharmacol Toxicol Methods 36, 87-95; Yazlovitskaya & Melnykovych. (1995) Cancer Lett 88, 179-183]. […]

CCCCCCCCCCCCCC(=O)O[C@@H]1[C@@H](C)[C@@]2(O)[C@@H](C=C(CO)C[C@]3(O)C(=O)C(C)=C[C@@H]23)[C@@H]2C(C)(C)[C@]12OC(C)=O [PMA, Phorbol-12-Myristate-13-Acetate]
relative sub-cellular distribution of PKCα: cytosol: 16±4%
relative sub-cellular distribution of PKCα: membrane: 84±3%
